Publication PMC3287420 (Nature chemical biology, 2011)
pIC50: −log10 of the molar value. One block for each compound: values may come before it.

Key:
DCLK1 = test: KiNativ; assay type: binding; settings: hPBMC and mouse brain tissue profiling
LRRK2 = assay type: binding; settings: hPBMC and mouse brain tissue profiling
MAPK7 = MAPK7 (Homo sapiens, UniProt Q13164); test: KiNativ; assay type: binding; settings: hPBMC and mouse brain tissue profiling
CHEK2 [1] = target: T1, CHEK2 (Homo sapiens, UniProt O96017); test: KiNativ; assay type: binding
Target sequence in this assay (O96017 whole entry): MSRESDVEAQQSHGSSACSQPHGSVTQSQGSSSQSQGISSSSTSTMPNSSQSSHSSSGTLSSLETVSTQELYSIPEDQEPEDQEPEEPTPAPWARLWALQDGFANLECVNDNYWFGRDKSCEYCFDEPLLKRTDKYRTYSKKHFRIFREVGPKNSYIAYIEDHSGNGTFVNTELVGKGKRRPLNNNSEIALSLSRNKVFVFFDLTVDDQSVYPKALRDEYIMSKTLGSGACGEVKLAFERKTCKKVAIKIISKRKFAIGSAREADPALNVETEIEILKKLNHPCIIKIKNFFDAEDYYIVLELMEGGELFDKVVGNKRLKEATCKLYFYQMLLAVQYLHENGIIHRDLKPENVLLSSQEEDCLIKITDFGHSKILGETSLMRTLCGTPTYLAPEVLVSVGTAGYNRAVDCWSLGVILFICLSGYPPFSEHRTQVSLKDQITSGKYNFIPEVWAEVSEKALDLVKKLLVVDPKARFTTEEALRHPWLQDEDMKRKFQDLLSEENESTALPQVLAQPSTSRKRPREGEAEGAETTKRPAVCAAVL

AURKB = AURKB (Homo sapiens, UniProt Q96GD4); test: Invitrogen SelectScreen biochemical assay
CHEK2 [2] = target: T1, CHEK2; test: Invitrogen SelectScreen biochemical assay
Target sequence in this assay (O96017 whole entry, species assumed): as the sequence (O96017 whole entry) above

DCLK2 = target: T2, DCLK2 (Homo sapiens, UniProt Q8N568); test: Invitrogen SelectScreen biochemical assay
T2 sequence (Q8N568 1-766): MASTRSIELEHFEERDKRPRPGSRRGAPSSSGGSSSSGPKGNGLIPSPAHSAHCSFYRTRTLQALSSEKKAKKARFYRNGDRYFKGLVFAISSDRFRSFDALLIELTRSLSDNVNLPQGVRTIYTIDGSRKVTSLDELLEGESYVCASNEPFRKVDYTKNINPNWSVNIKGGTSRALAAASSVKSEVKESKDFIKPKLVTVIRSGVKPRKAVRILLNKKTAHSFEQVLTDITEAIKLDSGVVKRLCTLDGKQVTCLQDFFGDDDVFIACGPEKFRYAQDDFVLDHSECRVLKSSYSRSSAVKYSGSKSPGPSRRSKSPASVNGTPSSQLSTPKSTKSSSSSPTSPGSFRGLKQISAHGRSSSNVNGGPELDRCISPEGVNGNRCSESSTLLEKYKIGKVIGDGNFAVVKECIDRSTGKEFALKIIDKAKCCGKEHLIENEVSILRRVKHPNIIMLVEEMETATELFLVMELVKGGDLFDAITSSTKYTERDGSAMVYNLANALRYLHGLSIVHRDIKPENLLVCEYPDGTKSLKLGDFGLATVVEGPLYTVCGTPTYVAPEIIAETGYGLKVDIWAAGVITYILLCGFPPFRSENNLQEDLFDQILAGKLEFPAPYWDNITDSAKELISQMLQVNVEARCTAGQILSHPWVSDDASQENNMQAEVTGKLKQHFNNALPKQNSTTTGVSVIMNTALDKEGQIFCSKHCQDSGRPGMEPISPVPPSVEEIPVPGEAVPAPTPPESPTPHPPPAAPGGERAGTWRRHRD

MKNK2 = MKNK2 (Homo sapiens, UniProt Q9HBH9); test: Invitrogen SelectScreen biochemical assay
MYLK = MYLK (Homo sapiens, UniProt Q15746); test: Invitrogen SelectScreen biochemical assay
NUAK1 = target: T3, NUAK1 (Homo sapiens, UniProt O60285); test: Invitrogen SelectScreen biochemical assay
T3 sequence (O60285 1-661): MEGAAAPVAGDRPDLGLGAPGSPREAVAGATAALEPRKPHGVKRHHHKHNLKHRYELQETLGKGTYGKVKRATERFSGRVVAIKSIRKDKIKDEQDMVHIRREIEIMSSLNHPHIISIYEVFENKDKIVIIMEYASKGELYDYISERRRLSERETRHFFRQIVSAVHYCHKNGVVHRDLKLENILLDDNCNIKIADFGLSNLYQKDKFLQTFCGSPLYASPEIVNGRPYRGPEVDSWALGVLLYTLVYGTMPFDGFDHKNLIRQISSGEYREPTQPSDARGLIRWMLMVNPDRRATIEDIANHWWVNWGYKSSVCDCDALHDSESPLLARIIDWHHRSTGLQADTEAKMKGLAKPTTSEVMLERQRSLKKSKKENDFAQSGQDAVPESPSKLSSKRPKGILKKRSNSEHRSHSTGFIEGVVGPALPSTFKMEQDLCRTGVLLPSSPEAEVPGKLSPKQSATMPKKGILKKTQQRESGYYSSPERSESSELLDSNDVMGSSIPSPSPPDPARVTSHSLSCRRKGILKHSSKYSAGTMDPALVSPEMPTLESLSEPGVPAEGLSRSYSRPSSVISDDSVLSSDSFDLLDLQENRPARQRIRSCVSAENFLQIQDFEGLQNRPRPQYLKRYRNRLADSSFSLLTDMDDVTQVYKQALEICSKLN

PLK1 = PLK1 (Homo sapiens, UniProt P53350); test: Invitrogen SelectScreen biochemical assay
[3] = tested on: kinase inactive LRRK2 {D2017A]; assay type: cell-based; settings: 1 µM, 2 h
Pharmacokinetics in mice = assay type: in vivo; settings: mouse, plasma, po, 10 mg/kg
GFP-LRRK2 = test: Fluorescence microscopy of LRRK2 localisation, HEK 293 stable cells; assay type: cell-based; settings: 1 µM, 2 h time course
GFP-LRRK2 [A2016T] [4] = test: as above; assay type: cell-based; settings: 1 µM, 2 h time course
GFP-LRRK2[A2016T+G2019S] [5] = test: as above; assay type: cell-based; settings: 1 µM, 2 h time course
GFP-LRRK1 = test: Fluorescence microscopy of LRRK1 localisation, HEK 293 stable cells; assay type: cell-based; settings: 1 µM, 2 hours
GFP-LRRK2 [A2016T] [6] = tested on: GFP-LRRK2 [A2016T]
GFP-LRRK2[A2016T+G2019S] [7] = tested on: GFP-LRRK2[A2016T+G2019S]
endogenous LRRK2 = settings: mice, 100 mg/kg intraperitoneal, 1 h and 2 h time points
[8] = target: T4, GST-LRRK2 [A2016T] (1326-2517) (Homo sapiens, UniProt Q5S007, A2016T); settings: cited from earlier work
T4 sequence (Q5S007 1326-2527 A2016T): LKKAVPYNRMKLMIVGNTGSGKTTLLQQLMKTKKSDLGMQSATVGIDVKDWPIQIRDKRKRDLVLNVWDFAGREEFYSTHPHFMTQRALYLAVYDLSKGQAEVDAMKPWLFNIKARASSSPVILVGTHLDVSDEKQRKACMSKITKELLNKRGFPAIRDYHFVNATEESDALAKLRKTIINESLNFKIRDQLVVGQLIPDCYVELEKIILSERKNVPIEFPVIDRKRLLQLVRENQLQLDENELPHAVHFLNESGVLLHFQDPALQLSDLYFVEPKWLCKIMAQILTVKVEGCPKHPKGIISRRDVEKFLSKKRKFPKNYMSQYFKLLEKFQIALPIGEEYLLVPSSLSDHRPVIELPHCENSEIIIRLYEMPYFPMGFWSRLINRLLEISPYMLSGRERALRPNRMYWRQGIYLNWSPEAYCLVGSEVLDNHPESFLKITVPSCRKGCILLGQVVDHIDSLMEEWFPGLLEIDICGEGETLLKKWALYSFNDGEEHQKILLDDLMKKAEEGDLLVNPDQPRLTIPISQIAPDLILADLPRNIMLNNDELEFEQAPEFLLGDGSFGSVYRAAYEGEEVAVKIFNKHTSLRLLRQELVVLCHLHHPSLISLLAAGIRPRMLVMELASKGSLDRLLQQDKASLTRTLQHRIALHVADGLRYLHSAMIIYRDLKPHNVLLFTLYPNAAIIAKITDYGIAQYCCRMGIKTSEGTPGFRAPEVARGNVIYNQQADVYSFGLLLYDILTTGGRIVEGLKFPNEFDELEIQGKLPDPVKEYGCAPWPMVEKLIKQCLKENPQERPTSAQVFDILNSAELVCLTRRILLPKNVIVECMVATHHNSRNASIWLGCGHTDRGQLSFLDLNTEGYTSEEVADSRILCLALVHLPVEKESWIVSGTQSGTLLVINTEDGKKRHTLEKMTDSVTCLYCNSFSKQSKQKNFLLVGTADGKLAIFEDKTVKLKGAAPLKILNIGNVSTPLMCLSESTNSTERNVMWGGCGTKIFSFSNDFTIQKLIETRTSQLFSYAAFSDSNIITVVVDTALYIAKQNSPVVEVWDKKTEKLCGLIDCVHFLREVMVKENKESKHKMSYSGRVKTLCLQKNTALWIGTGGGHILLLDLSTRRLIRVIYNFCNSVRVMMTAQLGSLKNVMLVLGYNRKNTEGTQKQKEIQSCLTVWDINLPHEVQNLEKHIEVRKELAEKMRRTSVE

Chain of MAPK7 (Q13164 whole entry): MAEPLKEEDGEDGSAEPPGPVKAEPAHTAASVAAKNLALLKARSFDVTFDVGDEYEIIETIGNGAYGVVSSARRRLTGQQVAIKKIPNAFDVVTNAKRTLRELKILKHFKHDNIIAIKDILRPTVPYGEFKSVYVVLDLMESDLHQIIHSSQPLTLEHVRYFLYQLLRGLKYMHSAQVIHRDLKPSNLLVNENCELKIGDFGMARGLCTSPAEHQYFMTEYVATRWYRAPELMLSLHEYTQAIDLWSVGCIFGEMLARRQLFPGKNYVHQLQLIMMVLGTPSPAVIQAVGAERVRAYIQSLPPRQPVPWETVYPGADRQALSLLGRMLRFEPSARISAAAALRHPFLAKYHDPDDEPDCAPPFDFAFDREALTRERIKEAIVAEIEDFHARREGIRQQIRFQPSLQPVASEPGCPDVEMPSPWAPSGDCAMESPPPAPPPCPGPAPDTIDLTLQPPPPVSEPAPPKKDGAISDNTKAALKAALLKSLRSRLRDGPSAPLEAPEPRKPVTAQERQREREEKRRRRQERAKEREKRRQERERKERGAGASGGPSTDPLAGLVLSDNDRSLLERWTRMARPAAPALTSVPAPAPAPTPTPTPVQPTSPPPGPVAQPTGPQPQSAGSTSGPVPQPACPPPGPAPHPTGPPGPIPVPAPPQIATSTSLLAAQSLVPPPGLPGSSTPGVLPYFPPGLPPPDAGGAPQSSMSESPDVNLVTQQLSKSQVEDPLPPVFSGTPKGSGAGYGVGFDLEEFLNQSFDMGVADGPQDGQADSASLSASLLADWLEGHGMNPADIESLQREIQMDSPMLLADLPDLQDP
Chain of MKNK2 (Q9HBH9 whole entry, species assumed): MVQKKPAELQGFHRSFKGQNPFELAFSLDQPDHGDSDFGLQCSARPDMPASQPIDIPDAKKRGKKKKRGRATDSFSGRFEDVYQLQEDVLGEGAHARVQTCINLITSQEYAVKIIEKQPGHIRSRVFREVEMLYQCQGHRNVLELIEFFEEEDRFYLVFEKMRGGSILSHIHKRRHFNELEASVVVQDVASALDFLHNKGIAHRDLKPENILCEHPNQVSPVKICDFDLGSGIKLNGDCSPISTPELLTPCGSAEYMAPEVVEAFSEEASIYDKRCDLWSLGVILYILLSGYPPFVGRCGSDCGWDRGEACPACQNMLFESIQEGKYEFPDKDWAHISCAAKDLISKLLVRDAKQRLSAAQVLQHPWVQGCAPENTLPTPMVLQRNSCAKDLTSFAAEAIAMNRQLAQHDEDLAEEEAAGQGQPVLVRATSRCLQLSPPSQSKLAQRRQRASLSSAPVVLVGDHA
Chain of PLK1 (P53350 whole entry): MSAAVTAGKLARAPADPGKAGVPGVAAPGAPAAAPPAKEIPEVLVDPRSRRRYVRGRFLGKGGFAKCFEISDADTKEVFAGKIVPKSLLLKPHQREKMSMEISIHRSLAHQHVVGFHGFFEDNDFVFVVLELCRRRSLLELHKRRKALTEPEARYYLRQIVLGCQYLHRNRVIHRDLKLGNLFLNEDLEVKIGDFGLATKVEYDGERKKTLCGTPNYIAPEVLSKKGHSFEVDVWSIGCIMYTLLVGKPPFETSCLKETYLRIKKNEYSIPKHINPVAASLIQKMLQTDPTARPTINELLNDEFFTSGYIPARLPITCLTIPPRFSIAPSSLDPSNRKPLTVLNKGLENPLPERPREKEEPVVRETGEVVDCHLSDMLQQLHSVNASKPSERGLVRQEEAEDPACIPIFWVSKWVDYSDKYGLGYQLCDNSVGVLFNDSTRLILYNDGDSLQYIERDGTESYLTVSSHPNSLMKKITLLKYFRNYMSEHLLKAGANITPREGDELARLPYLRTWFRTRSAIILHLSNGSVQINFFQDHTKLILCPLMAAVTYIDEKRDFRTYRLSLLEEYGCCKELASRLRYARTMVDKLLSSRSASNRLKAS
Chain of AURKB (Q96GD4 whole entry, species assumed): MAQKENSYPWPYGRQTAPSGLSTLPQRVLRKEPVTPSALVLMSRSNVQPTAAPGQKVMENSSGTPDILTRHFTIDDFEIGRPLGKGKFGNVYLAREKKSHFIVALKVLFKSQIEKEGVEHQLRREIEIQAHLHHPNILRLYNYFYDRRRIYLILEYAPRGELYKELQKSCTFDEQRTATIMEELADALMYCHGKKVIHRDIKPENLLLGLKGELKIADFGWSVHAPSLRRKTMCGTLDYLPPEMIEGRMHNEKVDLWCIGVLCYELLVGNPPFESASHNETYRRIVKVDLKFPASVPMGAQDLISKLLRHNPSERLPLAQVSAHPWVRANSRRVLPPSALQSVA
Chain of MYLK (Q15746 whole entry, species assumed): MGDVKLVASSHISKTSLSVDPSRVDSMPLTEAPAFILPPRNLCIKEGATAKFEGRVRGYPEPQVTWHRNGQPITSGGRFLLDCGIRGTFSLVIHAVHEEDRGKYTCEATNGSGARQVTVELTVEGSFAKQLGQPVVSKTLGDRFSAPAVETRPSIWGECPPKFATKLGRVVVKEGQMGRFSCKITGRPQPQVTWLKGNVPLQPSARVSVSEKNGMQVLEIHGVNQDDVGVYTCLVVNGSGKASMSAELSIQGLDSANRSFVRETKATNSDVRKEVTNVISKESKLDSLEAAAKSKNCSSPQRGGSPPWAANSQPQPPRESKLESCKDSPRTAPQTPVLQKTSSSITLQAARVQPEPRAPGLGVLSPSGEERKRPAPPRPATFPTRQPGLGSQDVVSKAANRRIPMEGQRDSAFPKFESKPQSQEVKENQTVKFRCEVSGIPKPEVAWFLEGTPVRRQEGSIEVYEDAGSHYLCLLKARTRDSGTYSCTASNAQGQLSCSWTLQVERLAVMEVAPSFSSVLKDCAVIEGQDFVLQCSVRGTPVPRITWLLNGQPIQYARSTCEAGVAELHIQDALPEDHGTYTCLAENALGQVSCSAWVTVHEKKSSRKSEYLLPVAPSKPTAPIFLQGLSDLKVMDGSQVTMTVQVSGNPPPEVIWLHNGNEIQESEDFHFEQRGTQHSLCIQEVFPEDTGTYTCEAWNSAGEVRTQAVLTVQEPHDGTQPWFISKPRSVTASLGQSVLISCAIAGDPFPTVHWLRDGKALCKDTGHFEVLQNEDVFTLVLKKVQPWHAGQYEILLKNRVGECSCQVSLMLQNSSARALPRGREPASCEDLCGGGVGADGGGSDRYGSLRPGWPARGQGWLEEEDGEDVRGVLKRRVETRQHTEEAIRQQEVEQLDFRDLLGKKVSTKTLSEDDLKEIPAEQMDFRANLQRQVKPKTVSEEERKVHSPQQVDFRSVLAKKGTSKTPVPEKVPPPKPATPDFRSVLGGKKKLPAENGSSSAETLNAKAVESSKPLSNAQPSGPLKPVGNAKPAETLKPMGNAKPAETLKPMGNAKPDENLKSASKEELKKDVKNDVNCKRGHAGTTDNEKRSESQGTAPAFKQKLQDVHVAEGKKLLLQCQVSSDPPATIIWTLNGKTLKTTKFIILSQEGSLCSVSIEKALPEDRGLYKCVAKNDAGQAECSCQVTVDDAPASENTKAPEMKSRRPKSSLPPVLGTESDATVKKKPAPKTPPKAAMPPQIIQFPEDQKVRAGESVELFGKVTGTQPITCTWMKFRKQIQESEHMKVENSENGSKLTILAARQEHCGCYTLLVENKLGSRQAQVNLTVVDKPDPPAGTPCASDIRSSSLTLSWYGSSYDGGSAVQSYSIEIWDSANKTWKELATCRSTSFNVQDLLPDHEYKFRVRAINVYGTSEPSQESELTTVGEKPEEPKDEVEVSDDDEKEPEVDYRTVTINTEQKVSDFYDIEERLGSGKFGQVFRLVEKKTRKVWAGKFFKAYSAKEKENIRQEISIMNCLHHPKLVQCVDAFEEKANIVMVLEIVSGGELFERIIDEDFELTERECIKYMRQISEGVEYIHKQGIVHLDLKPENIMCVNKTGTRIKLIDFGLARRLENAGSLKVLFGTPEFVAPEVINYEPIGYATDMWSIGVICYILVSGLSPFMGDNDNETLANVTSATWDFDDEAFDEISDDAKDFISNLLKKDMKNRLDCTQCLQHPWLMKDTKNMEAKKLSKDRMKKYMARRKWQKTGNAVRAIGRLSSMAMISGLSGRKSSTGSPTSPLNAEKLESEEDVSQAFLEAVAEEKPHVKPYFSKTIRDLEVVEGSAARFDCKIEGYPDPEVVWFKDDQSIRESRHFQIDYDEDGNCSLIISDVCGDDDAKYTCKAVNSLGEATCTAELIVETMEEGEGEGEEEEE

inhibition in KiNativ profiling (MAPK7): confirmed inhibition | pIC50 (CHEK2 [1]): < 6.00 | pIC50 (AURKB): < 6.00 | pIC50 (CHEK2 [2]): < 6.00 | pIC50 (DCLK2): 7.35 | pIC50 (MKNK2): < 6.00 | pIC50 (MYLK): < 6.00 | pIC50 (NUAK1): < 6.00 | pIC50 (PLK1): < 6.00 | AUC(0-inf) (Pharmacokinetics in mice): 14800 ng·h/mL | bioavailability (Pharmacokinetics in mice): 49.3%
Structure (SMILES): COc1cc(C(=O)N2CCC(N3CCN(C)CC3)CC2)ccc1Nc1ncc2c(n1)N(C)c1ccccc1C(=O)N2C [LRRK2-IN-1]
inhibition in KiNativ profiling (DCLK1): confirmed inhibition | inhibition in KiNativ profiling (LRRK2): confirmed inhibition | dephosphorylation of Ser910/Ser935 [3]: did not induce significant dephosphorylation | localization of LRRK2 (accumulation into aggregate structures) (GFP-LRRK2): significant accumulation | localization of LRRK2 (GFP-LRRK2 [A2016T] [4]): did not affect the localization | localization of LRRK2 (GFP-LRRK2[A2016T+G2019S] [5]): did not affect the localization | localization of LRRK1 (GFP-LRRK1): does not change | dephosphorylation of Ser910/Ser935 (GFP-LRRK2 [A2016T] [6]): failed to induce dephosphorylation | dephosphorylation of Ser910/Ser935 (GFP-LRRK2[A2016T+G2019S] [7]): failed to induce dephosphorylation | Ser910/Ser935 dephosphorylation of LRRK2 in the kidney (endogenous LRRK2): complete Ser910/Ser935 dephosphorylation | dephosphorylation of LRRK2 Ser910 or Ser935 in brain (endogenous LRRK2): no dephosphorylation

Structure (SMILES): Cc1cncc2cccc(S(=O)(=O)N3CCCNC[C@@H]3C)c12 [H-1152]
fold less sensitive to inhibitor [8]: 32 fold

Structure (SMILES): CCN(CC)CCNC(=O)c1c(C)[nH]c(/C=C2\C(=O)Nc3ccc(F)cc32)c1C [sunitinib]
fold less sensitive to inhibitor [8]: 12 fold
